Literature values, collected in US20110229584A1, “Compound for the control of herpes simplex virus using glycyrrhizic acid, lipoic acid, allantoin, and slippery elm” (priority 2010, published 2011).

Columns and labels:
[1] = test system: severe acute respiratory syndrome (SARS)
zoster = conditions: incubated with the viruses for more than 30 minutes
HSV-1 [2] = test system: HSV-1
Epstein-Barr = conditions: incubated with the viruses for more than 30 minutes
HSV-2 = conditions: incubated with the viruses for more than 30 minutes
[3] = test system: human aortic endothelial cells
HSV-1 [4] = conditions: applied topically to infected epidermal areas
HSV-1 [5] = test system: HSV-1; remark: listed apart in the source

CC1(C)[C@@H](O[C@H]2O[C@H](C(=O)O)[C@@H](O)[C@H](O)[C@H]2O[C@@H]2O[C@H](C(=O)O)[C@@H](O)[C@H](O)[C@H]2O)CC[C@]2(C)[C@H]3C(=O)C=C4[C@@H]5C[C@@](C)(C(=O)O)CC[C@]5(C)CC[C@@]4(C)[C@]3(C)CC[C@@H]12 [Glycyrrhizic acid]
inhibition of severe acute respiratory syndrome (SARS) [1]: inhibit | growth and cytopathic effect of Newcastle's Disease (Newcastle's Disease): inhibit | growth and cytopathic effect of vesicular viomantitis (vesicular viomantitis): inhibit | inactivation of zoster (zoster): more than 90% | activity against in vivo HSV-1 (HSV-1 [2]; in vivo): strong activity | resistance of thermally injured mice to HSV-1 (HSV-1 [2]; thermally injured mice): improve | growth and cytopathic effect of vaccinia (vaccinia): inhibit | inactivation of Epstein-Barr (Epstein-Barr): more than 90% | deactivation of HSV (Herpes simplex (HSV)): irreversibly deactiveate | growth and cytopathic effect of Herpes simplex (HSV) (Herpes simplex (HSV)): inhibit | inactivation of HSV-2 (HSV-2): more than 90%

O=C(O)CCCCC1CCSS1 (stereo not drawn) [Lipoic acid, alpha-Lipoic acid]
LPS-caused expression of cellular adhesion molecules and adherence of monocytes to human aortic endothelial cells [3]: inhibit | LPS-triggered NF-B DNA binding activities [3]: inhibited

Cl.NCCCC[C@H](N)C(=O)O [Lysine monohydrochloride, L-Lysine Monohydrochloride]
inactivation of HSV-1 (HSV-1 [4]): not to be able to inactivate

CC1(C)[C@@H](O)CC[C@]2(C)[C@H]3C(=O)C=C4[C@@H]5C[C@@](C)(C(=O)O)CC[C@]5(C)CC[C@@]4(C)[C@]3(C)CC[C@@H]12 [glycrrhetic acid]
inhibition of severe acute respiratory syndrome (SARS) [1]: inhibit

CCCCCCCCCCCCCCCCCCCCCCO [Docosanol, docosanol]
decrease of mean time of healing (HSV; both treatment phases, applied early in the stages of infection): more than 50% | healing time of first episodes with treatment (average) (HSV; first episodes): 5.4 days | reduction of healing times of first episodes (average) (HSV; first episodes, from 7.3 days): 1.9 days

Nc1nc2c(ncn2CCC(CO)CO)c(=O)[nH]1 [Penciclovir]
decrease of pain duration (HSV-1 [5]; from 4.1 days): 0.6 days | healing time of the lesions with treatment (HSV-1 [5]; treated group): 4.8 days | pain duration with treatment (HSV-1 [5]; treated group): 3.5 days | lesion virus shedding (HSV-1 [5]; versus placebo): marginally changed | healing of the lesions faster versus placebo (HSV-1 [5]; versus placebo 5.5 days): 0.7 days
